According to ChEMBL document CHEMBL1137488, “Strategies toward improving the brain penetration of macrocyclic tertiary carbinamine BACE-1 inhibitors” (Bioorg Med Chem Lett, 2007):

Test system: P-glycoprotein
Assay: Apparent permeability in human KBV1 cells overexpressing P-glycoprotein
Type: ADME, cell-based, KB-V1
Settings: not given

SMILES	Papp [×10⁻⁶ cm/s]
CC1CCc2cccc(c2)C[C@@](C)(N)C(=O)OCc2cc(nc(N(C)S(C)(=O)=O)c2)CC1 (stereo partly drawn)	14
CN(c1cc2cc(n1)CCC(c1ccccc1)CCc1cccc(c1)C[C@@](C)(N)C(=O)OC2)S(C)(=O)=O (stereo partly drawn)	9
CN(c1cc2cc(n1)NCCCCc1cccc(c1)C[C@@](C)(N)C(=O)OC2)S(C)(=O)=O	11
CN(c1cc2cc(n1)CCCCCc1cccc(c1)C[C@@](C)(N)C(=O)OC2)S(C)(=O)=O	29
CN(c1cc2cc(n1)N(Cc1ccccc1)CCCCc1cccc(c1)C[C@@](C)(N)C(=O)OC2)S(C)(=O)=O	20
CN(c1cc2cc(n1)N(CC1CC1)CCCCc1cccc(c1)C[C@@](C)(N)C(=O)OC2)S(C)(=O)=O	8
CC1CCc2cccc(c2)C[C@@](C)(N)C(=O)OCc2cc(cc(N(C)S(C)(=O)=O)c2)CC1 (stereo partly drawn)	16

Test system: not listed separately
Assay: Drug level in mouse brain at 30 mg/kg, ip after 2 hrs
Type: ADME, organism-based
Parameters: dose 30 mg/kg, route intraperitoneal
Settings: read-out: Drug uptake

SMILES	concentration at 2 h [nM]
CC1CCc2cccc(c2)C[C@@](C)(N)C(=O)OCc2cc(nc(N(C)S(C)(=O)=O)c2)CC1 (stereo partly drawn)	637
